Patent US6572860B1, “Immunogenic conjugated polypeptide for treatment of herpes simplex virus” (CEL-SCI Corporation, priority 1997, dated 2003)
Entries after “also recorded” stand apart in the source; their conditions may differ.

What was measured:
[1] = system: ultraviolet inactivated HSV; test: Delayed type hypersensitivity (DTH), ear pinna swelling at 48 hours (FIG. 3); type: in vivo, Balb/c mice; conditions: vaccinated unchallenged mice, 4 weeks after last immunization, 48 hours after injection of UV inactivated HSV
Procedure: (§1) Each immunization consisted of 33 nmoles of conjugated polypeptide or non-conjugated antigenic peptide H1 (equivalent to 100 μg of the JH1 vaccine). The peptide was mixed with the Novasome liposomal adjuvant (50% v/v). The mice were immunized twice with a two week interval between inoculations. After an additional two weeks, most of the mice received an intraperitoneal challenge with the EKN clinical strain of HSV-1. The mice were evaluated daily for symptoms. […] Blood was obtained from selected mice for ELISA studies prior to immunization and prior to virus challenge. The results are shown in FIG. 1 for symptom (on a daily basis) and in FIG. 2 for survival following vaccination and sub-lethal challenge.
DTH response was evaluated 4 weeks after the last immunization for the vaccinated mice and three unvaccinated HSV challenged mice which had recovered from disease (C). Swelling of the right ear pinna was measured at 48 hours following injection of ultraviolet inactivated HSV and compared to the left ear pinna which had been injected with buffer.
In another series of parallel experiments Balb/c female mice (n=9) were vaccinated with the H1 peptide or the JH1, GH1 or LH1 conjugated polypeptides according to the same protocol as for the HSV-1 challenge experiment described above.

HSV-1 [2] = test: Intraperitoneal challenge of vaccinated mice with an LD50 of HSV-1: symptoms and survival; type: in vivo; conditions: Balb/c mice 4 wk old, n=6, vaccinated twice, challenged with an LD50 of HSV-1; for disease symptoms (symptom score 1-5): FIG. 4; for survival / death: FIG. 5
Procedure: Similar tests as described above were carried out. Balb/c mice (4 wk old) (n=6) were unvaccinated (NO VAC) or vaccinated and revaccinated two weeks later with the H1 peptide or the indicated conjugated polypeptide. The mice were then challenged two weeks later with an LD50 of HSV-1. Symptoms were scored daily as:
(§2) 1. non-specific mild symptoms
(§3) 2. mild swelling of the abdomen
(§4) 3. significant swelling of the abdomen and malaise
The results are shown in FIG. 4 for symptoms, in FIG. 5 for survival and in FIG. 6 for DTH.

[3] = system: ultraviolet inactivated HSV; test: Delayed type hypersensitivity (DTH), ear pinna swelling at 24, 48 and 96 hours (FIG. 6); type: in vivo, Balb/c mice; conditions: 4 weeks after last immunization, 24, 48 and 96 hours after injection of UV inactivated HSV
Procedure: DTH response was evaluated 4 weeks after the last immunization for the vaccinated mice and three unvaccinated HSV challenged mice which had recovered from disease (Ctrl)
(§5) The protocol used in this experiment differed slightly from that of FIG. 3. Swelling in the right ear pinna was measured by micrometer prior to and at 24, 48 and 96 hours following injection of ultraviolet inactivated HSV and compared to the left ear pinna which had been injected with an uninfected Vero cell extract.

HSV-1 [4] = test: Intraperitoneal HSV-1 challenge of vaccinated mice, sub-lethal (<LD50) challenge: symptoms and survival; type: in vivo, Balb/c mice; conditions: for Symptomatic conditions after viral challenge (symptom score 1-5) / survival after viral challenge: Balb/c mice; for Symptomatic conditions after viral challenge (symptom score 1-5): 2 immunizations of 33 nmoles in Novasome adjuvant, i.p. sub-lethal HSV-1 challenge two weeks later; for survival after viral challenge: sub-lethal i.p. HSV-1 challenge, FIG. 2
Description: An intraperitoneal challenge model using mice test animal was selected although the predominant presentation of HSV disease is not intraperitoneal since a reproducible course of disease occurs following viral challenge; since the viral challenge dose can be well defined and readily delivered by intraperitoneal injection since the symptoms are readily detected and the course of disease can be qualitatively evaluated; and since the relevant parameter of survival may be readily evaluated. Immune function studies may also be conducted in vitro to further characterize the responses to the test vaccines.
In a series of experiments, groups (12 per group) of 3 week old Balb/c female mice (Taconic Farms, Germantown, N.Y.) are immunized and test bled according to the following schedule. Schedule A: immunizations on day 0 and day 14, and two weeks later nine mice of each group are challenged moderately with a lethal dose (<LD50) of HSV (H129 clinical strain) administered intraperitoneally. In this regard, young Balb/c mice show a defined course of disease which progresses from abdominal swelling, lethargy, paraplegia, to death within 1 to 2 weeks. Therefore, the effectiveness of the vaccinations may be readily determined.
as §1
In FIG. 1 symptoms were scored daily as:
as §2, §3, §4

[5] = system: ultraviolet inactivated HSV; test: DTH tests on unchallenged mice immunized with B1 peptides; type: in vivo; conditions: 3 unchallenged immunized C57BI6 mice
Procedure: as §5

B1 peptide = test: ELISA of serum antibody response, B1 peptide as antigen; type: in vivo, C57BI6 mice
Procedure: (§6) The antibody responses of vaccinated and unchallenged mice, vaccinated and challenged mice and unvaccinated and challenged mice were measured by ELISA assay. Serum was obtained 7 weeks after the initial immunization or 2 weeks after the virus challenge. B1 peptide or infected cell extracts were bound to the ELISA plate as antigen. Results are shown in Table 3 and were taken from pooled serum taken from 2 or 3 mice. The results were corrected for non-specific responses by subtracting the absorbance obtained towards an unrelated antigen.

HSV-1 [6] = test: HSV-1 challenge of mice vaccinated with B1 peptides: survival (FIG. 7); type: in vivo; conditions: C57BI6 mice; for survival (mice surviving of 9): after day 8
Description: In order to further establish the effectiveness of conjugated peptides according to this invention as effective vaccines for treatment of herpes simplex virus, the HSV epitope B1, which is a T cell epitope (aa 498-505, SSIEFARL) of glycoprotein B found in both HSV-1 or HSV-2 (see Hanke, et al, J. Virol. 65:1177-86; and Bonneau, et al, Virology 195:62-70) was selected and evaluated with either peptide J or peptide G or peptide L as described above. Namely, the conjugated peptides GB1, JB1 and LB1, as described in Table 1 above, were tested under the same conditions as previously described except that in place of the Balb/c mice, C57BI6 mice were vaccinated with the B1 conjugated peptides or non-conjugated B1 peptide (SEQ ID NO:4). The mice immunized with the B1 peptide or with the conjugated peptide LB1 were not protected from HSV-1 challenge (0 of 9 or 1 of 9 survival, respectively, after day 8) and, in fact the B1 and LB1 immunized mice fared worse than the control (unvaccinated) mice (2 of 9 survival after day 8).

infected cell extracts = test: ELISA of serum antibody response, infected cell extracts as antigen (antivirus response); type: in vivo, C57BI6 mice; conditions: vaccinated and HSV-1 challenged mice, pooled serum, 2 weeks after virus challenge
Procedure: as §6

peptide H1 = test: ELISA of antibody responses to peptide H1; type: in vivo; conditions: immunized Balb/c mice
Procedure: as §1

[7] = 9 challenged mice per group, sub-lethal HSV-1 challenge, FIG. 1
[8] = vaccinated and unchallenged mice, pooled serum of 2 or 3 mice, 7 weeks after initial immunization

In the case of “DLL KN GER IEK VEG GGL YRT FAG NPR A (SEQ ID NO:10) (DLLKNGERIEKVEGGGLYRTFAGNPRA) [JH1, conjugated polypeptide of Peptide J (β-2 microglobulin), GGG spacer and peptide H1 of ICP27]”, the “DTH response (redness and swelling of ear pinna)” value [1] is reported as “DTH was observed”, the “disease symptoms (symptom score 1-5)” value (HSV-1 [2]) is reported as “protected from disease symptoms” and the survival / death (HSV-1 [2]) is reported as “protected from disease symptoms and death”. For the same substance, the “DTH response (redness and swelling of ear pinna)” value [3] was “DTH was observed on each day”, the “number of mice showing significant symptoms” value (HSV-1 [4]; [7]) was “two” and the “number of mice that died” value (HSV-1 [4]; [7]) was “one”. For the same substance, the “Symptomatic conditions after viral challenge (symptom score 1-5)” value (shortened to “Symptomatic conditions”) (HSV-1 [4]; FIG. 1) was “protected from disease” and the “survival after viral challenge” value (HSV-1 [4]) was “maximal survival”.

With “NGQ EEK AGV VST GLI GGG LYR TFA GNP RA (SEQ ID NO:12) (NGQEEKAGVVSTGLIGGGLYRTFAGNPRA) [GH1, conjugated polypeptide of Peptide G, GGG spacer and peptide H1]” the “DTH response (redness and swelling of ear pinna)” value [1] was “not”, the “disease symptoms (symptom score 1-5)” value (HSV-1 [2]) was “severe symptoms” and the survival / death (HSV-1 [2]) was “death”. The “DTH response (redness and swelling of ear pinna)” value [3] was “Some swelling but no redness was observed for some but not all of the mice”, the “Symptomatic conditions” value (HSV-1 [4]; FIG. 1) was “more severe symptoms throughout the course of infection and death; also recorded: seemed to exacerbate the disease symptoms” and the “survival after viral challenge” value (HSV-1 [4]) was “seemed to exacerbate the disease symptoms”.

For “SSIEFARL (SEQ ID NO:4) [B1, non-conjugated antigenic peptide, amino acid residues 498 to 505 from glycoprotein B of HSV-1, reference compound]”, the DTH response [5] was “did not exhibit a DTH response”, the “B1 PEPTIDE RESPONSE (ELISA absorbance, corrected for non-specific response)” value (B1 peptide; [8]) was 0.031 and the “protection from HSV-1 challenge” value (HSV-1 [6]) was “not protected”. For the same substance, the “survival (mice surviving of 9)” value (HSV-1 [6]) was 0 of 9.

With “LHG PEI LDV PST GGG SSI EFA RL (SEQ ID NO:18) (LHGPEILDVPSTGGGSSIEFARL) [LB1, conjugated polypeptide of Peptide L, GGG spacer and peptide B1]” the “B1 PEPTIDE RESPONSE (ELISA absorbance, corrected for non-specific response)” value (B1 peptide; [8]) was 0.031, the “protection from HSV-1 challenge” value (HSV-1 [6]) was “not protected” and the “survival (mice surviving of 9)” value (HSV-1 [6]) was 1 of 9.

For “DLL KNG ERI EKV EGG GSS IEF ARL (SEQ ID NO:16) (DLLKNGERIEKVEGGGSSGSSIEFARL) [JB1, conjugated polypeptide of Peptide J, GGG spacer and peptide B1 of glycoprotein B]”, the DTH response [5] was “exhibited a DTH response”, the “B1 PEPTIDE RESPONSE (ELISA absorbance, corrected for non-specific response)” value (B1 peptide; [8]) was 0.025 and the “ANTIVIRUS RESPONSE (ELISA absorbance, corrected for non-specific response)” value (infected cell extracts) was 0.445. The “protection from HSV-1 challenge” value (HSV-1 [6]) was “partial protection”, the survival (HSV-1 [6]) was 44.4% and the “survival (mice surviving of 9)” value (HSV-1 [6]) was 4 of 9.

In the case of “LYRTFAGNPRA (SEQ ID NO:1) [H1, non-conjugated antigenic peptide, amino acid residues 322 to 332 of the ICP27 protein of HSV-1, reference compound]”, the “DTH response (redness and swelling of ear pinna)” value [1] is reported as “not”, the “Antibody responses to the antigenic peptide by ELISA” value (peptide H1) is reported as “undetectable” and the “disease symptoms (symptom score 1-5)” value (HSV-1 [2]) is reported as “severe symptoms”. For the same substance, the survival / death (HSV-1 [2]) was “death”, the “DTH response (redness and swelling of ear pinna)” value [3] was “Some swelling but no redness was observed for some but not all of the mice” and the “Symptomatic conditions” value (HSV-1 [4]; FIG. 1) was “more severe symptoms throughout the course of infection and death; also recorded: seemed to exacerbate the disease symptoms”. For the same substance, the “survival after viral challenge” value (HSV-1 [4]) was “seemed to exacerbate the disease symptoms”.

“NGQ EEK AGV VST GLI GGG SSI EFA RL (SEQ ID NO:17) (NGQEEKAGVVSTGLIGGGSSIEFARL) [GB1, conjugated polypeptide of Peptide G, GGG spacer and peptide B1]” was tested, and the DTH response [5] was “did not exhibit a DTH response”, the “B1 PEPTIDE RESPONSE (ELISA absorbance, corrected for non-specific response)” value (B1 peptide; vaccinated and HSV-1 challenged mice, pooled serum, 2 weeks after virus challenge) was 0.017 and the “B1 PEPTIDE RESPONSE (ELISA absorbance, corrected for non-specific response)” value (B1 peptide; [8]) was 0.035. The “protection from HSV-1 challenge” value (HSV-1 [6]) was “partial protection”, the survival (HSV-1 [6]) was 55.5% and the “survival (mice surviving of 9)” value (HSV-1 [6]) was 5 of 9.

With “LHG PEI LDV PST GGG LYR TFA GNP RA (SEQ ID NO:13) (LHGPEILDVPSTGGGLYRTFAGNPRA) [LH1, conjugated polypeptide of Peptide L, GGG spacer and peptide H1]” the “DTH response (redness and swelling of ear pinna)” value [1] was “not”, the “disease symptoms (symptom score 1-5)” value (HSV-1 [2]) was “severe symptoms” and the survival / death (HSV-1 [2]) was “death”. For the same substance, the “DTH response (redness and swelling of ear pinna)” value [3] was “Some swelling but no redness was observed for some but not all of the mice”, the “Symptomatic conditions” value (HSV-1 [4]; FIG. 1) was “more severe symptoms throughout the course of infection and death; also recorded: seemed to exacerbate the disease symptoms” and the “survival after viral challenge” value (HSV-1 [4]) was “seemed to exacerbate the disease symptoms”.
